What is called ED50 is the midpoint of the dose-response relation.

Here are results for one compound from patent US4073903A, “3-Desacetoxymethyl-3- 5'(1-methyltetrazolyl)thio!methyl-7- 1-(4-nitr oimidazolyl)acetyl!aminocephalosporanic acid” (Pierrel S.p.A., priority 1975, dated 1978).

The structures appear in SMILES notation. Converted amounts (≈) assume the structure as drawn.

Series [1] in a line: Solubility. It is filed as physicochemical. Particulars: crystals.
Series [2] deals with Salmonella heidelberg. The series can be described thus: MIC against Ampicillin-resistant clinical isolates, broth dilution test (Table IV). Particulars: Salmonella enterica, 24 h, read-out: Minimun inhibitory concentration (MIC).
The subject of series [3] is Klebsiella pneumoniae. Particulars: in Mus musculus, 168 h, read-out: ED50 per treatment.
Series [4] has as its system Shigella flexneri. The series can be described thus: MIC, twofold serial broth dilution (Table I). Particulars: strain ISM-LRP 40, Tryptose Phosphate Broth, 37° C, 24 hours, read-out: Minimum inhibitory concentration (MIC). The format is cell-based. The source says: (§1) In Table I the minimum inhibitory concentrations (MIC) of P-75123 against a variety of Gram-positive and Gram-negative bacteria are listed.

In series [5] the test system is Diplococcus pneumoniae. In words: MIC, twofold serial broth dilution (Table I). It is filed as cell-based. Particulars: Streptococcus pneumoniae; strain Ty XXVII-LRP 53; Todd Hewitt Broth; 37° C, 24 hours; read-out: Minimum inhibitory concentration (MIC).
Excerpt: as §1
In general terms: Dilution methods test growth across graded concentrations, often in twofold steps.

Series [6] concerns Shigella sonnei. In words: MIC, twofold serial broth dilution (Table I). Particulars: strain ISM-LRP 5, Tryptose Phosphate Broth, 37° C, 24 hours, read-out: Minimum inhibitory concentration (MIC). It is filed as cell-based.
Excerpt: as §1

In series [7] the test system is Escherichia coli. The series can be described thus: Treatment of mice systemically infected with Escherichia coli (Table V). Particulars: in Mus musculus, 168 h, read-out: ED50 per treatment.
The test system of series [8] is Brucella suis. In words: microbe, parasite or virus in culture. It is filed as cell-based. Particulars: 24 h, read-out: Minimum inhibitory concentration (MIC).

As to `Cn1nnnc1SCC1=C(C(=O)O)N2C(=O)C(NC(=O)Cn3cnc([N+](=O)[O-])c3)C2SC1` (stereo not drawn) [P-75123, 7-1-(1H-4-nitroimidazolyl)acetyl!amino-3-5-(1H-1-methyltetrazolyl)thio!methyl-3-cephem-4-carboxylic acid], in series [1] (dimethylsulfoxide), the Solubility in dimethylsulfoxide entry is on record as “soluble in dimethylsulfoxide”. Besides, in series [1] (water), the Solubility in water result is “practically insoluble in water”. In addition, the MIC in series [2] stood at 1.56 µg/mL (≈ 3.24 µM); in series [4], 0.78 µg/mL (≈ 1.62 µM); in series [5], 0.097 µg/mL (≈ 0.201 µM); in series [6] it was 1.56 µg/mL (≈ 3.24 µM); in series [8], 12.5 µg/mL (≈ 26 µM). Further, the values for the ED50 in series [3] and in series [7] were 49 mg/kg and 35 mg/kg, respectively.
